The text below walks through data of patent publication US20230227815A1, “Systems, Methods, And Compositions For A Facile Accelerated Specific Therapeutic (Fast) Pipeline” (priority 2019, published 2023).

One may read the MIC as the lowest concentration found to suppress growth. Read a low MIC as inhibition by little substance.

The test system of this assay is E. Coli CUS2B. The experiment in a line: Minimum inhibitory concentration assay. The format is cell-based. The settings on record: for resistance phenotype (CLSI breakpoints): E. Coli CUS2B clinical isolate; for MIC: Escherichia coli, E. Coli CUS2B. The source says: To validate the E. Coli CUS2B resistance phenotype observed in the clinic, we measured the isolate's minimum inhibitory concentrations (MIC) for a variety of antibiotics from different classes (FIG. 17A). […] Two potent carbapenem antibiotics, meropenem and doripenem, were the only drugs to which the clinical isolate was susceptible. To investigate this partial carbapenem resistance, we focused on the E. Coli CUS2B response to ertapenem and meropenem. The structures of meropenem and ertapenem differ in the pyrrolidinyl ring's position 2 side chain (FIG. 17B). Meropenem's substituent amide group is thought to be responsible for increased potency against gram-negative organisms in comparison to imipenem. At this position ertapenem has a benzoate substituent group, which imbues the molecule with a net negative charge and increases its lipophilicity, resulting in increased plasma half-life but decreased affinity for membrane porins.
E. Coli CUS2B was provided the Dr. Nancy Madinger, at the University of Colorado Hospital Clinical Microbiology Laboratory's organism bank. The isolate was obtained via rectal swab from a pregnant patient. Unless otherwise mentioned, CUS2B was propagated in aerobic conditions at 37° C. in liquid cultures of cation-adjusted Mueller Hinton broth (CAMHB) with shaking at 225 rpm or on solid CAMHB with 15 g/L of agar. Minimum inhibitory concentration assays Three colonies were picked from a plate and used to inoculate three separate overnight cultures in 1 mL CAMHB each. After 16 hours, the cultures were diluted 1:10,000 and treated with a range of antibiotic concentrations, decreasing in 2-fold increments, in a 384 or 96-well microplate using three biological replicates per condition. Growth in the plate was monitored with a Tecan GENios (Tecan Group Ltd.) running Magellan™ software (v 7.2) at an absorbance of 461 590 nm every 20 minutes for 16 hours, with shaking between measurements. The minimum inhibitory concentration was identified as the lowest antibiotic concentration preventing growth.

Converted amounts (≈) assume the structure as drawn.

`C[C@@H](O)[C@H]1C(=O)N2C(C(=O)O)=C(S[C@@H]3CN[C@H](C(=O)Nc4cccc(C(=O)O)c4)C3)[C@H](C)[C@H]12` [ertapenem]: the “resistance phenotype (CLSI breakpoints)” value is “resistant” and the MIC is 2 µg/mL (≈ 4.21 µM).
As to `C[C@@H](O)[C@H]1C(=O)N2C(C(=O)O)=C(S[C@@H]3CN[C@H](CNS(N)(=O)=O)C3)[C@H](C)[C@H]12` [doripenem], the “resistance phenotype (CLSI breakpoints)” value was “susceptible”.
As to `C[C@@H](O)[C@H]1C(=O)N2C(C(=O)O)=C(S[C@@H]3CN[C@H](C(=O)N(C)C)C3)[C@H](C)[C@H]12` [meropenem], the “resistance phenotype (CLSI breakpoints)” value is “susceptible” and 0.25 µg/mL (≈ 0.652 µM) was the least that counted as inhibitory (MIC).
